The record followed here is patent EP4722207A1, “OXOISOINDOLINYL-SUBSTITUTED TETRAHYDROPYRIMIDINEDIONE DERIVATIVE AND USE THEREOF” (Gluetacs Therapeutics (Shanghai) Co., Ltd., priority 2023, dated 2024).

The structures appear in SMILES notation.

Common to all, as to format: cell-based
Common to all, as to conditions: compounds at 50 nM and 500 nM, 24 hours

For one test, the target named is T1, WEE1 (Homo sapiens, UniProt P30291+Q96SW2).
T1 construct: effects of the compounds of the present disclosure on the expression of target proteins in cells; endogenous in cells; host or cells: human PBMCs (hPBMCs)
T1 sequence (P30291 whole entry): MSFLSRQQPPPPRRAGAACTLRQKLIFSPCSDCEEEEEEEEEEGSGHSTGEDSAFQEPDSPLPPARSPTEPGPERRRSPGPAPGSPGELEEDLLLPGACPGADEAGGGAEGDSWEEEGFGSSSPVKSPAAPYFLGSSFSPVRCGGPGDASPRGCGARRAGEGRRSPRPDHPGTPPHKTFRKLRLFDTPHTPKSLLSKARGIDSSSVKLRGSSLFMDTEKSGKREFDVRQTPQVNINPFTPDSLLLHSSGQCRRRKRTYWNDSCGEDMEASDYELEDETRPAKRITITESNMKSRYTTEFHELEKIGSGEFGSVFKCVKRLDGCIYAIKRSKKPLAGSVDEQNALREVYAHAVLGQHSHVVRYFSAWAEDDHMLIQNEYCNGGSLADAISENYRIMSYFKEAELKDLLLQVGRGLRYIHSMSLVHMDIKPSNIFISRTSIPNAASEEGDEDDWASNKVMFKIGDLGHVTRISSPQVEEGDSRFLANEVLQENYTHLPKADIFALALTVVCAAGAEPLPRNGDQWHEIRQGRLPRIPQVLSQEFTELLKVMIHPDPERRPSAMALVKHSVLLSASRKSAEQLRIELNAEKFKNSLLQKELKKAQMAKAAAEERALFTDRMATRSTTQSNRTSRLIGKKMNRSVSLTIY
T1 sequence (Q96SW2 whole entry): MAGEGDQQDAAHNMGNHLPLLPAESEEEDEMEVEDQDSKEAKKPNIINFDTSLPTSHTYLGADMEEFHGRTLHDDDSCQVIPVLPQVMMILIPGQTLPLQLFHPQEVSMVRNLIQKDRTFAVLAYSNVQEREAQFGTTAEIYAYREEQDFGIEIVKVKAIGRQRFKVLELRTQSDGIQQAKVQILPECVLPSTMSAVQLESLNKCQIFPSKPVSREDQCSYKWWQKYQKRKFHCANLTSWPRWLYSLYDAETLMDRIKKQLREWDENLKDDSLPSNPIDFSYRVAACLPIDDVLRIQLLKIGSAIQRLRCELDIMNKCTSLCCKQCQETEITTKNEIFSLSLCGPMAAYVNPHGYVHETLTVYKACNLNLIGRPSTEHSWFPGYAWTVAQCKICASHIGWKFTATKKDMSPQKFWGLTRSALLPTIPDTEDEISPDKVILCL
T1 sequence (Q16531 whole entry partner): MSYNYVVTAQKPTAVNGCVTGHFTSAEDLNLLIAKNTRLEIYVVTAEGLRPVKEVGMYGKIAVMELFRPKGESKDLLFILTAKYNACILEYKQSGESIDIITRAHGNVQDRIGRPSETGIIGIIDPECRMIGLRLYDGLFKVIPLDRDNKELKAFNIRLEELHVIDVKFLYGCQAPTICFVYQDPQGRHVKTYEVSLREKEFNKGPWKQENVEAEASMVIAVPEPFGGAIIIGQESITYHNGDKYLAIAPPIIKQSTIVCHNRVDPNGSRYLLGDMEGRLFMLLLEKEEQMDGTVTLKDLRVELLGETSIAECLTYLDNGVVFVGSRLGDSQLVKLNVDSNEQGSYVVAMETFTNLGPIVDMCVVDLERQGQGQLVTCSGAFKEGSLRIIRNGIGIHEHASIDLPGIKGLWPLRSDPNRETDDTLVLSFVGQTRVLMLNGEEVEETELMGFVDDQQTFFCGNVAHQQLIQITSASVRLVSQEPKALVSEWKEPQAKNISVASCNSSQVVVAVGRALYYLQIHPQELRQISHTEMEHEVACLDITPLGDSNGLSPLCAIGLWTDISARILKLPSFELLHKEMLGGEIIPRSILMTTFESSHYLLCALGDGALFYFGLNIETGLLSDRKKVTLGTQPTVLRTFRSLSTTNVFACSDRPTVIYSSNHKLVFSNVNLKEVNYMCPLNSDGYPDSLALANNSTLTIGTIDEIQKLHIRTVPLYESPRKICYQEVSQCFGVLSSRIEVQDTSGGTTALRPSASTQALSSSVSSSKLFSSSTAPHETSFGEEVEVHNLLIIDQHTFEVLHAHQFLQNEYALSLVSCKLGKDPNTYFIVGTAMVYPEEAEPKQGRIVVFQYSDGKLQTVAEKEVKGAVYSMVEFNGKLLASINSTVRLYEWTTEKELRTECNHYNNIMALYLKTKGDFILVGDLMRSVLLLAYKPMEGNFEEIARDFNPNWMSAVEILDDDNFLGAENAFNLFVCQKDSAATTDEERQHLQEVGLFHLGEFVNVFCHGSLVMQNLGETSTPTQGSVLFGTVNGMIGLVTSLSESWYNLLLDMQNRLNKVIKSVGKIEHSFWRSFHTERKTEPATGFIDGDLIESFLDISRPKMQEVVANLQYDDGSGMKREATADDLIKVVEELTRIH
As to the kind of experiment: Western-blot assay, substrate protein degradation in hPBMCs: WEE1.

For another test, the target named is T2, IKZF1 (Homo sapiens, UniProt Q13422+Q96SW2).
T2 construct: effects of the compounds of the present disclosure on the expression of target proteins in cells; endogenous in cells; host or cells: human PBMCs (hPBMCs)
T2 sequence (Q13422 whole entry): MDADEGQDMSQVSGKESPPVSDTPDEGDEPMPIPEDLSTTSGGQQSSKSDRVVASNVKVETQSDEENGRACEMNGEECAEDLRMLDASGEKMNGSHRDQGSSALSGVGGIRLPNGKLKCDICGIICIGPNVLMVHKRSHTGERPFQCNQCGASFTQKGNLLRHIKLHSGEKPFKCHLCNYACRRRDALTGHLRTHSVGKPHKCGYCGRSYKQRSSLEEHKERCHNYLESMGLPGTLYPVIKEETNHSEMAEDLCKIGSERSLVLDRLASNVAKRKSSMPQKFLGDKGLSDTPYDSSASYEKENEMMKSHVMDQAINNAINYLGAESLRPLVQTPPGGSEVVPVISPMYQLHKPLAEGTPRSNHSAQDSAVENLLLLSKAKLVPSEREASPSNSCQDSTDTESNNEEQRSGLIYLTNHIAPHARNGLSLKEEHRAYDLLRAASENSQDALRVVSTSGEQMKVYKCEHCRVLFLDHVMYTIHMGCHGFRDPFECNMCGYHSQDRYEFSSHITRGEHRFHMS
T2 sequence (Q96SW2 whole entry): as the sequence (Q96SW2 whole entry) above
T2 sequence (Q16531 whole entry partner): as the sequence (Q16531 whole entry partner) above
Nature of the test: Western-blot assay, substrate protein degradation in hPBMCs: IKZF1.

The next test concerns the target T3, IKZF2 (Homo sapiens, UniProt Q96SW2+Q9UKS7).
T3 construct: effects of the compounds of the present disclosure on the expression of target proteins in cells; endogenous in cells; host or cells: human PBMCs (hPBMCs)
Nature of the test: Western-blot assay, substrate protein degradation in hPBMCs: IKZF2.

A further test concerns the target T4, IKZF3 (Homo sapiens, UniProt Q96SW2+Q9UKT9).
T4 construct: effects of the compounds of the present disclosure on the expression of target proteins in cells; endogenous in cells; host or cells: human PBMCs (hPBMCs)
As to the kind of experiment: Western-blot assay, substrate protein degradation in hPBMCs: IKZF3.

For a further test, the target named is T5, CK1α (Homo sapiens, UniProt P48729+Q96SW2).
T5 construct: effects of the compounds of the present disclosure on the expression of target proteins in cells; endogenous in cells; host or cells: human PBMCs (hPBMCs)
Nature of the test: Western-blot assay, substrate protein degradation in hPBMCs: CK1α.

The target in a further test is T6, GSPT1 (Homo sapiens, UniProt P15170+Q96SW2).
T6 construct: effects of the compounds of the present disclosure on the expression of target proteins in cells; endogenous in cells; host or cells: human PBMCs (hPBMCs)
T6 sequence (P15170 whole entry): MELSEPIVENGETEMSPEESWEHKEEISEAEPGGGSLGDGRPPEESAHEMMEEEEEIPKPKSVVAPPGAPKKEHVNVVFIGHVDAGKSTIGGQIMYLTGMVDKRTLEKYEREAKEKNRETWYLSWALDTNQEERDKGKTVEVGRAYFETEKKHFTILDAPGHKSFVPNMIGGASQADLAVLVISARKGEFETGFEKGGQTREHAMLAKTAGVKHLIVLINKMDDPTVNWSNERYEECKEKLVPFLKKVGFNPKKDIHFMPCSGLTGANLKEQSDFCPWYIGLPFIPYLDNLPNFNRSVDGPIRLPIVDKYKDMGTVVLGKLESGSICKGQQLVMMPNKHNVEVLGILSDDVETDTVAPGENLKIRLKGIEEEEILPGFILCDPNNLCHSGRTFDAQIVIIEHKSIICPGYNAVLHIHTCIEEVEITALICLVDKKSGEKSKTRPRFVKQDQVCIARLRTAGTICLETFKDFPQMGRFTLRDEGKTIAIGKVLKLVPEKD
T6 sequence (Q96SW2 whole entry): as the sequence (Q96SW2 whole entry) above
T6 sequence (Q16531 whole entry partner): as the sequence (Q16531 whole entry partner) above
Nature of the test: Western-blot assay, substrate protein degradation in hPBMCs: GSPT1.

T3 sequence (Q9UKS7 whole entry): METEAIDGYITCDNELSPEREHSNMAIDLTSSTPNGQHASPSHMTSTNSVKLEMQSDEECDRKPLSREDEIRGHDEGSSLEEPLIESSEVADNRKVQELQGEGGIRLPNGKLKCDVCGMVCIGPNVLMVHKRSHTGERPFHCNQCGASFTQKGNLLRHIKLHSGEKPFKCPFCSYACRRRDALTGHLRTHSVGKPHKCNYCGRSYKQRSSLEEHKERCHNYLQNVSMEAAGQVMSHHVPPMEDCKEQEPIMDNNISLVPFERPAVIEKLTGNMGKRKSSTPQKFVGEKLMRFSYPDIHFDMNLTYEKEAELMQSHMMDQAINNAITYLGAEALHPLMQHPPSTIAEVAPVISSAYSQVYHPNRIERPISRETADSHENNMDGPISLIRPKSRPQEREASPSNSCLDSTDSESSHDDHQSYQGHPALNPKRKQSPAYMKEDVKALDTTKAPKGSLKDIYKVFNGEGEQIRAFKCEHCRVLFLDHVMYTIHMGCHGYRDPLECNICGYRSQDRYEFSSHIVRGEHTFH
T3 sequence (Q96SW2 whole entry): as the sequence (Q96SW2 whole entry) above
T3 sequence (Q16531 whole entry partner): as the sequence (Q16531 whole entry partner) above
T4 sequence (Q9UKT9 whole entry): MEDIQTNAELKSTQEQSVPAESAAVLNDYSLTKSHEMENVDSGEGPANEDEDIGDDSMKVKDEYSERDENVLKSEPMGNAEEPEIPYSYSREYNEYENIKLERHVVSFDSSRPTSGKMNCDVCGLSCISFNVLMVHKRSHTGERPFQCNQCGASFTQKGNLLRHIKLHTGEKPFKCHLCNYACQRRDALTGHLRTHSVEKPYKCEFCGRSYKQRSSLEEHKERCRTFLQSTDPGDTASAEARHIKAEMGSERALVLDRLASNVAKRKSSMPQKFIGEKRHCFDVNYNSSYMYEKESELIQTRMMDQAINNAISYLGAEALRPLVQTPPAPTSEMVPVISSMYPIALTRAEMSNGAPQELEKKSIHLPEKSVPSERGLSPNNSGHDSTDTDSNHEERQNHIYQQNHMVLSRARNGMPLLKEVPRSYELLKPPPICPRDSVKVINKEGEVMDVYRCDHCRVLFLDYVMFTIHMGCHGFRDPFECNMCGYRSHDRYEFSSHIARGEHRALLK
T4 sequence (Q96SW2 whole entry): as the sequence (Q96SW2 whole entry) above
T4 sequence (Q16531 whole entry partner): as the sequence (Q16531 whole entry partner) above

With `Cc1cc(N2CCN(Cc3ccc4c(c3)CN(N3CCC(=O)NC3=O)C4=O)CC2)cc(C)n1` [GT-07033, 1-(5-((4-(2,6-dimethylpyridin-4-yl)piperazin-1-yl)methyl)-1-oxoisoindolin-2-yl)dihydropyrimidine-2,4(1H,3H)-dione], at WEE1, the “WEE1 substrate protein remaining %” value was “B ("B" is defined as 80%< substrate protein remaining %≤ 100%)”. Also, the “IKZF1 substrate protein remaining %” value at IKZF1 is listed as “B ("B" is defined as 80%< substrate protein remaining %≤ 100%)”. Besides, the “IKZF2 substrate protein remaining %” value on IKZF2 is reported as “B ("B" is defined as 80%< substrate protein remaining %≤ 100%)”. Moreover, the “IKZF3 substrate protein remaining %” value at IKZF3 is recorded as “B ("B" is defined as 80%< substrate protein remaining %≤ 100%)”. Further, the “CK1α substrate protein remaining %” value on CK1α was “B ("B" is defined as 80%< substrate protein remaining %≤ 100%)”. Besides, at GSPT1, the “GSPT1 substrate protein remaining %” value is “A ("A" is defined as 0% ≤ substrate protein remaining % ≤ 80%)”.
Regarding `O=C1CCN(N2C(=O)c3ccc(CN4CCN(c5ncnc(Cl)c5Cl)CC4)cc3C2=O)C(=O)N1` [GT-07034, 5-((4-(5,6-dichloropyrimidin-4-yl)piperazin-1-yl)methyl)-2-(2,4-dioxotetrahydropyrimidin-1(2H)-yl)isoindoline-1,3-dione], the “WEE1 substrate protein remaining %” value at WEE1 is “A ("A" is defined as 0% ≤ substrate protein remaining % ≤ 80%)”. For the same molecule, at IKZF1, the “IKZF1 substrate protein remaining %” value is recorded as “A ("A" is defined as 0% ≤ substrate protein remaining % ≤ 80%)”. For the same molecule, at IKZF2, the “IKZF2 substrate protein remaining %” value is reported as “A ("A" is defined as 0% ≤ substrate protein remaining % ≤ 80%)”. The “IKZF3 substrate protein remaining %” value at IKZF3 is reported as “A ("A" is defined as 0% ≤ substrate protein remaining % ≤ 80%)”. The “CK1α substrate protein remaining %” value on CK1α is reported as “A ("A" is defined as 0% ≤ substrate protein remaining % ≤ 80%)”. The “GSPT1 substrate protein remaining %” value at GSPT1 is “A ("A" is defined as 0% ≤ substrate protein remaining % ≤ 80%)”.
On to `O=C1CCN(N2C(=O)c3ccc(CN4CCN(c5cnnc(Cl)c5Cl)CC4)cc3C2=O)C(=O)N1` [GT-07035, 5-((4-(5,6-dichloropyridazin-4-yl)piperazin-1-yl)methyl)-2-(2,4-dioxotetrahydropyrimidin-1(2H)-yl)isoindoline-1,3-dione], for which, on WEE1, the “WEE1 substrate protein remaining %” value is recorded as “B ("B" is defined as 80%< substrate protein remaining %≤ 100%)”. The “IKZF1 substrate protein remaining %” value at IKZF1 is listed as “B ("B" is defined as 80%< substrate protein remaining %≤ 100%)”. Further, at IKZF2, the “IKZF2 substrate protein remaining %” value is “B ("B" is defined as 80%< substrate protein remaining %≤ 100%)”. Moreover, the “IKZF3 substrate protein remaining %” value on IKZF3 was “A ("A" is defined as 0% ≤ substrate protein remaining % ≤ 80%)”. The “CK1α substrate protein remaining %” value at CK1α was “A ("A" is defined as 0% ≤ substrate protein remaining % ≤ 80%)”. Moreover, the “GSPT1 substrate protein remaining %” value on GSPT1 is “A ("A" is defined as 0% ≤ substrate protein remaining % ≤ 80%)”.
In the case of `O=C1CCN(N2C(=O)c3ccc(CN4CCN(c5cc(Cl)nnc5Cl)CC4)cc3C2=O)C(=O)N1` [GT-07036, 5-((4-(3,6-dichloropyridazin-4-yl)piperazin-1-yl)methyl)-2-(2,4-dioxotetrahydropyrimidin-1(2H)-yl)isoindoline-1,3-dione], the “WEE1 substrate protein remaining %” value at WEE1 is given as “B ("B" is defined as 80%< substrate protein remaining %≤ 100%)”. In addition, the “IKZF1 substrate protein remaining %” value on IKZF1 was “B ("B" is defined as 80%< substrate protein remaining %≤ 100%)”. In addition, the “IKZF2 substrate protein remaining %” value at IKZF2 was “B ("B" is defined as 80%< substrate protein remaining %≤ 100%)”. Also, at IKZF3, the “IKZF3 substrate protein remaining %” value is “B ("B" is defined as 80%< substrate protein remaining %≤ 100%)”. Moreover, the “CK1α substrate protein remaining %” value on CK1α is on record as “B ("B" is defined as 80%< substrate protein remaining %≤ 100%)”. Moreover, the “GSPT1 substrate protein remaining %” value at GSPT1 was “A ("A" is defined as 0% ≤ substrate protein remaining % ≤ 80%)”.
For `O=C1CCN(N2C(=O)c3ccc(CN4CCN(c5ncncn5)CC4)cc3C2=O)C(=O)N1` [GT-07037, 5-((4-(1,3,5-triazin-2-yl)piperazin-1-yl)methyl)-2-(2,4-dioxotetrahydropyrimidin-1(2H)-yl)isoindoline-1,3-dione], the “WEE1 substrate protein remaining %” value on WEE1 is “B ("B" is defined as 80%< substrate protein remaining %≤ 100%)”. Further, the “IKZF1 substrate protein remaining %” value at IKZF1 is recorded as “B ("B" is defined as 80%< substrate protein remaining %≤ 100%)”. For the same molecule, the “IKZF2 substrate protein remaining %” value at IKZF2 was “B ("B" is defined as 80%< substrate protein remaining %≤ 100%)”. Besides, the “IKZF3 substrate protein remaining %” value at IKZF3 is reported as “B ("B" is defined as 80%< substrate protein remaining %≤ 100%)”. For the same molecule, the “CK1α substrate protein remaining %” value on CK1α was “B ("B" is defined as 80%< substrate protein remaining %≤ 100%)”. On GSPT1, the “GSPT1 substrate protein remaining %” value is reported as “A ("A" is defined as 0% ≤ substrate protein remaining % ≤ 80%)”.
As for `O=C1CCN(N2C(=O)c3ccc(CN4CCN(c5c(Cl)cncc5Cl)CC4)cc3C2=O)C(=O)N1` [GT-07038, 5-((4-(3,5-dichloropyridin-4-yl)piperazin-1-yl)methyl)-2-(2,4-dioxotetrahydropyrimidin-1(2H)-yl)isoindoline-1,3-dione], the “WEE1 substrate protein remaining %” value at WEE1 was “A ("A" is defined as 0% ≤ substrate protein remaining % ≤ 80%)”. Further, on IKZF1, the “IKZF1 substrate protein remaining %” value is recorded as “A ("A" is defined as 0% ≤ substrate protein remaining % ≤ 80%)”. Besides, the “IKZF2 substrate protein remaining %” value on IKZF2 is “A ("A" is defined as 0% ≤ substrate protein remaining % ≤ 80%)”. For the same molecule, the “IKZF3 substrate protein remaining %” value at IKZF3 was “A ("A" is defined as 0% ≤ substrate protein remaining % ≤ 80%)”. Besides, the “CK1α substrate protein remaining %” value on CK1α is reported as “A ("A" is defined as 0% ≤ substrate protein remaining % ≤ 80%)”. Further, the “GSPT1 substrate protein remaining %” value at GSPT1 is listed as “A ("A" is defined as 0% ≤ substrate protein remaining % ≤ 80%)”.
Take `O=C1CCN(N2Cc3cc(CN4CCN(c5ccnc(Cl)c5F)CC4)ccc3C2=O)C(=O)N1` [GT-07069, 1-(5-((4-(2-chloro-3-fluoropyridin-4-yl)piperazin-1-yl)methyl)-1-oxoisoindolin-2-yl)dihydropyrimidine-2,4(1H,3H)-dione]: the “WEE1 substrate protein remaining %” value on WEE1 is given as “A ("A" is defined as 0% ≤ substrate protein remaining % ≤ 80%)”. Further, the “IKZF1 substrate protein remaining %” value at IKZF1 is “B ("B" is defined as 80%< substrate protein remaining %≤ 100%)”. For the same molecule, at IKZF2, the “IKZF2 substrate protein remaining %” value is given as “B ("B" is defined as 80%< substrate protein remaining %≤ 100%)”. Moreover, the “IKZF3 substrate protein remaining %” value at IKZF3 is listed as “B ("B" is defined as 80%< substrate protein remaining %≤ 100%)”. Also, the “CK1α substrate protein remaining %” value at CK1α was “B ("B" is defined as 80%< substrate protein remaining %≤ 100%)”. For the same molecule, at GSPT1, the “GSPT1 substrate protein remaining %” value is “B ("B" is defined as 80%< substrate protein remaining %≤ 100%)”.
Consider `O=C1CCN(N2C(=O)c3ccc(CN4CCN(c5ccncc5)CC4)cc3C2=O)C(=O)N1` [GT-07073, 2-(2,4-dioxotetrahydropyrimidin-1(2H)-yl)-5-((4-(pyridin-4-yl)piperazin-1-yl)methyl)isoindoline-1,3-dione], for which the “WEE1 substrate protein remaining %” value on WEE1 is reported as “A ("A" is defined as 0% ≤ substrate protein remaining % ≤ 80%)”. Also, at IKZF1, the “IKZF1 substrate protein remaining %” value is on record as “B ("B" is defined as 80%< substrate protein remaining %≤ 100%)”. Further, at IKZF2, the “IKZF2 substrate protein remaining %” value is “B ("B" is defined as 80%< substrate protein remaining %≤ 100%)”. Further, the “IKZF3 substrate protein remaining %” value on IKZF3 was “B ("B" is defined as 80%< substrate protein remaining %≤ 100%)”. Moreover, the “CK1α substrate protein remaining %” value on CK1α is recorded as “B ("B" is defined as 80%< substrate protein remaining %≤ 100%)”. Besides, the “GSPT1 substrate protein remaining %” value on GSPT1 was “B ("B" is defined as 80%< substrate protein remaining %≤ 100%)”.
Turning to `O=C1CCN(N2Cc3cc(CN4CCN(c5cnccn5)CC4)ccc3C2=O)C(=O)N1` [GT-07160, 1-(1-oxo-5-((4-(pyrazin-2-yl)piperazin-1-yl)methyl)isoindolin-2-yl)dihydropyrimidine-2,4(1H,3H)-dione], the “WEE1 substrate protein remaining %” value on WEE1 is “B ("B" is defined as 80%< substrate protein remaining %≤ 100%)”. In addition, the “IKZF1 substrate protein remaining %” value on IKZF1 is listed as “B ("B" is defined as 80%< substrate protein remaining %≤ 100%)”. Besides, the “IKZF2 substrate protein remaining %” value on IKZF2 was “A ("A" is defined as 0% ≤ substrate protein remaining % ≤ 80%)”. Further, the “IKZF3 substrate protein remaining %” value at IKZF3 is “B ("B" is defined as 80%< substrate protein remaining %≤ 100%)”. The “CK1α substrate protein remaining %” value on CK1α is reported as “A ("A" is defined as 0% ≤ substrate protein remaining % ≤ 80%)”. In addition, at GSPT1, the “GSPT1 substrate protein remaining %” value was “A ("A" is defined as 0% ≤ substrate protein remaining % ≤ 80%)”.
Consider `Cc1cc(N2CCN(Cc3ccc4c(c3)C(=O)N(N3CCC(=O)NC3=O)C4=O)CC2)ccn1` [GT-07161, 2-(2,4-dioxotetrahydropyrimidin-1(2H)-yl)-5-((4-(2-methylpyridin-4-yl)piperazin-1-yl)methyl)isoindoline-1,3-dione], for which, at WEE1, the “WEE1 substrate protein remaining %” value is “B ("B" is defined as 80%< substrate protein remaining %≤ 100%)”. For the same molecule, the “IKZF1 substrate protein remaining %” value on IKZF1 is “B ("B" is defined as 80%< substrate protein remaining %≤ 100%)”. For the same molecule, the “IKZF2 substrate protein remaining %” value at IKZF2 is on record as “A ("A" is defined as 0% ≤ substrate protein remaining % ≤ 80%)”. Besides, the “IKZF3 substrate protein remaining %” value on IKZF3 is “B ("B" is defined as 80%< substrate protein remaining %≤ 100%)”. The “CK1α substrate protein remaining %” value on CK1α was “B ("B" is defined as 80%< substrate protein remaining %≤ 100%)”. In addition, on GSPT1, the “GSPT1 substrate protein remaining %” value was “A ("A" is defined as 0% ≤ substrate protein remaining % ≤ 80%)”.
